Results from PubChem BioAssay AID588737 (Vanderbilt Specialized Chemistry Center, 2011).

Target: Metabotropic glutamate receptor 5 (Homo sapiens) (UniProt P41594)
Assay: PubChem AID 588737
Conditions: HEK293A hmGluR5 calcium fluorescence, glutamate CRC fold shift, at 10 µM, stronger effect = higher value; for Emax: glutamate max response with compound

Sequence of Metabotropic glutamate receptor 5 (Homo sapiens) (P41594 whole entry, looked up): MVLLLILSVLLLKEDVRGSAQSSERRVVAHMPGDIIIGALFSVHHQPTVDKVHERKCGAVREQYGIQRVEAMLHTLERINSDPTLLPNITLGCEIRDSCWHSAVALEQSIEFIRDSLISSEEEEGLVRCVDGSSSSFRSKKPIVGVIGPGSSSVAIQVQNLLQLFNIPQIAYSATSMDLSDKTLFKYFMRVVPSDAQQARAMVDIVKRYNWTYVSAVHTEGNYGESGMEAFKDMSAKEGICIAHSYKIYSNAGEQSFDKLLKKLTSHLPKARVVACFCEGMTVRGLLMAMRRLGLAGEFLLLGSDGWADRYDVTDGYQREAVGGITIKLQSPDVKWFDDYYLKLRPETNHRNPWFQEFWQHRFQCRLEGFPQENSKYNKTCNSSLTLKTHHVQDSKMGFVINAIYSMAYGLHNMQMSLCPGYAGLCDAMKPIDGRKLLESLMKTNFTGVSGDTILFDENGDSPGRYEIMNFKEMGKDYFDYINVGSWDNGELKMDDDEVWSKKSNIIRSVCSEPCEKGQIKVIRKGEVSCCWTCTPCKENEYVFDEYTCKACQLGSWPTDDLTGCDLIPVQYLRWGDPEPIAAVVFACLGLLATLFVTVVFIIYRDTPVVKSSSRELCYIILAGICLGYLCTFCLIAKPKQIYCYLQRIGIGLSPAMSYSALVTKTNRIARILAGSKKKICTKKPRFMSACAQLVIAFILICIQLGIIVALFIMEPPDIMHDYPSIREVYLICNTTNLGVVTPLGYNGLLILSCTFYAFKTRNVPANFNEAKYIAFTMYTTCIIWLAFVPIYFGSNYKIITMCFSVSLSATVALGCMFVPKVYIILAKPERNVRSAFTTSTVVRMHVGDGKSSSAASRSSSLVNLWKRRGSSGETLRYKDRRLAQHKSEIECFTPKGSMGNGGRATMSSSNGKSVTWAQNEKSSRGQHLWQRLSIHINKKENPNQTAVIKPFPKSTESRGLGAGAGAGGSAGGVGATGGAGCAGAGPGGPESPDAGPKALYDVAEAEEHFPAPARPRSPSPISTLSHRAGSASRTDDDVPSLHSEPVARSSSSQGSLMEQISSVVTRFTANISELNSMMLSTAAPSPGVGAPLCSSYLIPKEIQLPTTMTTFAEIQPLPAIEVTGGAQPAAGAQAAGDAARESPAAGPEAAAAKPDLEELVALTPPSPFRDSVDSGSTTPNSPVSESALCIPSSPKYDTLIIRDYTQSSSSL

SMILES | fold shift | Emax
C[C@@H](NC(=O)c1ccc(C#Cc2cccc(F)c2)cn1)C(C)(C)O | 9.79 | 95%
CC1(NC(=O)c2ccc(C#Cc3cccc(F)c3)cn2)COC1 | 2.19 | 88%
